The text below walks through data of publication PMC5966835 (Antiviral research, 2018).

The target in data set [1] is T1, CHIKV nsP1 (Chikungunya virus, UniProt Q8JUX6).
T1 sequence (Q8JUX6 1-535 limits assumed): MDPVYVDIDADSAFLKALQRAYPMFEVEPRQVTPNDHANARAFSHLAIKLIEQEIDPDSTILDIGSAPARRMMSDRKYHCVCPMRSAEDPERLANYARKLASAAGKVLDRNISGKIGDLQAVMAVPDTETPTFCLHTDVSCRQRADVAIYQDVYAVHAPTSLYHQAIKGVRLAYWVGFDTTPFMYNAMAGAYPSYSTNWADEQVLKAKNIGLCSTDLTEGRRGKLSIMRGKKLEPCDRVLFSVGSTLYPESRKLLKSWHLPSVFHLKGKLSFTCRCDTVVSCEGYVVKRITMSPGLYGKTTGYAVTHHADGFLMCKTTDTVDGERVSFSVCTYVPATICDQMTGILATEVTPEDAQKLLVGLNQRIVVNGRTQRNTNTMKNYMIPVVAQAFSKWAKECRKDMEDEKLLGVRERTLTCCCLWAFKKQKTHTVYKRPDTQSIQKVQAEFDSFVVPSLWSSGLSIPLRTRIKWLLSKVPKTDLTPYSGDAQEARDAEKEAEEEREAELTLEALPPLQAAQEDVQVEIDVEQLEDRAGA
The data set can be described thus: Fluorescence polarization GTP-competition assay. The class given is binding. To be noted: for more active against CHIKV nsP1 than Dengue NS5 (selectivity): Ki CHIKV nsP1 vs DENV NS5. (In fluorescence polarisation assays a small probe gives low polarisation when free and higher when bound to something large.)

A further data set addresses DENV NS5 (Dengue virus type 2, UniProt P29990). The data set can be described thus: GTP-binding inhibition of flavivirus NS5 capping enzyme.
Data set [2] deals with T1, CHIKV nsP1. The experiment in a line: Guanylation inhibition. The conditions noted are these: 200-3.1 µM, 1 hour at 37°C, n=3. It is filed as biochemical.
Another data set deals with Sindbis virus. The data set can be described thus: Live virus testing, Sindbis virus in BHK cells, plaque assay. To be noted: for Sindbis virus replication in vitro: BHK cells, MOI 0.1, 48 hours. The class given is cell-based, Sindbis virus (TE/3'2J).
A further data set has as its system CHIKV (strain OPY1). The experiment in a line: Live virus testing, CHIKV in BHK cells, plaque assay. It is filed as cell-based, Chikungunya virus. To be noted: for CHIKV replication in BHK cells: MOI 0.1, 48 hours; for EC50: Chikungunya virus, BHK, read-out: BHK EC50.
For data set [3] the following is noted: cited from earlier work.
In data set [4] the test system is human adenosine-triphosphategated P2X7 receptor. To be noted: ref Fischer et al., 2014; cited from earlier work.
In a further data set the test system is CHIKV. The experiment in a line: Live virus testing, CHIKV in Huh 7 cells, plaque assay. The class given is cell-based. To be noted: Chikungunya virus, read-out: Huh 7 EC50.
Data set [5] can be described thus: Cytotoxicity assay.
The nature of data set [6]: Cytotoxicity assay. To be noted: human.

Where two headings read alike, the source gives them in different places.

Sequence of DENV NS5 (P29990 2492-2758 limits assumed): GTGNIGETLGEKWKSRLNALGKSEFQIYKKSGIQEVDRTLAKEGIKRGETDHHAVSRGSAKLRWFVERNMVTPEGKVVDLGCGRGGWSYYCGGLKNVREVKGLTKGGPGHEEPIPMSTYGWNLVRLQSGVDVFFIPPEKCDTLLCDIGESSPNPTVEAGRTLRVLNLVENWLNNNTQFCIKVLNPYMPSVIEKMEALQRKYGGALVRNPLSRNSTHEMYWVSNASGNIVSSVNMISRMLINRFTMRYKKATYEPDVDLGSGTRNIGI

In general, Ki refers to a dissociation constant, usually derived from enzyme kinetics or from competition with a known ligand. Higher therefore signals weaker binding. On to `CN1CCCN=C1/C=C/c1cccs1` [pyrantel pamoate, reference compound], for which, on CHIKV nsP1 [1], the affinity corresponds to a Ki of 5 ± 0.3 µM and the “more active against CHIKV nsP1 than Dengue NS5 (selectivity)” value is ~5 X. For the same compound, the Ki at DENV NS5 is 38 ± 1.5 µM. Further, at CHIKV nsP1 [2], the “inhibition of CHIKV nsP1 guanylation activity” value (“inhibition” for short) is “inhibited CHIKV nsP1 guanlylation activity in a dose dependent manner”. Moreover, in the data set on Sindbis virus, the “Sindbis virus replication in vitro” value is recorded as “did not markedly decrease Sindbis virus replication in vitro”. In the data set with CHIKV (strain OPY1), the “CHIKV replication in BHK cells” value was “Neither pyrantel pamoate nor garcinolic acid were able to reduce CHIKV replication in BHK cells”. In data set [3], the “absorption in the human intestine” value is “poorly absorbed in the human intestine”.

As to `CC(C)=CCCC1(C)C=Cc2c(O)c3c(c(CC=C(C)C)c2O1)OC12C(=CCCC1C(C)(C)O[C@@]2(C/C=C(\C)C(=O)O)C(=O)O)C3=O` (some centres unmarked) [garcinolic acid], the Ki stood at 14.5 ± 4.9 µM on CHIKV nsP1 [1] and 6.9 ± 0.4 µM on DENV NS5. Moreover, the “inhibition” value on CHIKV nsP1 [2] is on record as “inhibited CHIKV nsP1 guanlylation activity in a dose dependent manner”. Besides, the “Sindbis virus replication in vitro” value with Sindbis virus was “did not markedly decrease Sindbis virus replication in vitro”. Besides, the “CHIKV replication in BHK cells” value in the data set with CHIKV (strain OPY1) is recorded as “Neither pyrantel pamoate nor garcinolic acid were able to reduce CHIKV replication in BHK cells”. The “Ca(2+) uptake of P2X7 receptor” value in data set [4] is given as “increase Ca(2+) uptake of the human adenosine-triphosphategated P2X7 receptor”.

A word on the EC50: it is the concentration at which the effect is half-maximal. Usually CC50 stands for the concentration that lowers cell viability or growth by half. The low end stands for harm at low concentration, the high end for better tolerance by the cells. `CCCCCc1c2c(cc(O)c1C(=O)O)OC(=O)c1c(cc(OC)cc1C(=O)CCCC)O2` [lobaric acid]: the Ki on CHIKV nsP1 [1] was found to be 7 ± 0.6 µM; at DENV NS5, 43.8 ± 7 µM. The “more active against CHIKV nsP1 than Dengue NS5 (selectivity)” value at CHIKV nsP1 [1] is reported as ~5 X. Further, on CHIKV nsP1 [2], the “inhibition” value was “inhibited CHIKV nsP1 guanlylation activity in a dose dependent manner”. Moreover, the EC50 in the data set on Sindbis virus (Sindbis virus, BHK, 48 h, read-out: EC50 Sindbis virus growth) came to 5.9 µM; in the data set on CHIKV (strain OPY1) (24 h) it was 9.9 ± 2.6 µM; in the data set with CHIKV (strain OPY1) (48 h) it was 8.9 ± 1.3 µM; in the data set with CHIKV (Huh-7, 24 h), 16.3 ± 1.2 µM; with CHIKV (Huh-7, 48 h) it was 5.3 ± 0.4 µM. Also, the average selectivity index in the data set with CHIKV (strain OPY1) (BHK and Huh 7 cells, 24 and 48 hours) is ~7. In addition, the “CHIKV replication in BHK cells” value with CHIKV (strain OPY1) was “inhibited viral replication efficiently after 48 hours”. Also, the values for the CC50 at 24 h in the data set “Cytotoxicity assay [5]” (hamster) and in “Cytotoxicity assay [6]” were 76.3 ± 2.1 µM and 60.5 ± 3.8 µM, respectively. Moreover, the CC50 at 48 h in the data set “Cytotoxicity assay [5]” (hamster) was determined as 53.8 ± 8.1 µM; in “Cytotoxicity assay [6]”, 50 ± 1.3 µM. Besides, in the data set “Cytotoxicity assay [5]” (hamster and human), the CC50 is 50 to 76 µM.

`CCc1oc2ccccc2c1C(=O)c1cc(Br)c(O)c(Br)c1` [benzbromarone, Benzbromarone, reference compound]: the Ki at CHIKV nsP1 [1] is 13 ± 0.9 µM; on DENV NS5, 9 ± 0.7 µM. Besides, at CHIKV nsP1 [2], the “inhibition” value was “only showed inhibitory activity at high µM concentrations”.
